Among the data in patent US20240400584A1, “COMPOUNDS AND METHODS FOR MODULATING SPLICING” (REMIX THERAPEUTICS INC., priority 2021, published 2024) are IC50 and AC50 values, retold here.

The test system of assay [1] is MYB. In words: RT-qPCR splicing assay, MYB AJ/CJ mRNA. The following applies: Homo sapiens, A673 or K562 cells, 24 hours; for IC50: decrease in canonical junction mRNA; for AC50: increase in alternative junction mRNA. The assay is classed as cell-based. In outline: (§1)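 HTT and MYB canonical (CJ) and alternative-exon (AJ) junction transcripts quantified by one-step RT-qPCR from lysates of A673 or K562 cells treated 24 h with 11-point 3-fold dilutions (top 10 uM, ≤0.25% DMSO). Ct normalized to GAPDH, GUSB or PPIA and DMSO control (2^−ΔΔCt), expressed as % response.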
On the technique in general: Real-time PCR tracks product formation cycle by cycle.

Assay [2] relates to HTT. Kind of assay: Gene panel canonical junction qPCR assay, HTT CJ mRNA (Table 7). The format is cell-based, human. The following applies: Homo sapiens, read-out: HTT CJ mRNA decrease IC50. In outline: (§2)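 A673 or K562 cells treated with compound; canonical exon-junction mRNA measured by RT-qPCR with junction-spanning primers/probe, normalised to GAPDH, GUSB or PPIA and DMSO (ΔΔCt, RQ). Percentage response set from fixed ΔCt assay windows, fitted to a 4-parameter logistic; IC50 is concentration giving 50% CJ decrease.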

The subject of another assay is Target C. In words: Gene panel canonical junction qPCR assay, Target C CJ mRNA (Table 7). The format is cell-based, human. The following applies: Homo sapiens, read-out: Target C CJ mRNA decrease IC50. In outline:
as §2

Assay [3] relates to MYB. Kind of assay: Gene panel canonical junction qPCR assay, MYB CJ mRNA (Table 7). The settings on record: Homo sapiens, read-out: MYB CJ mRNA decrease IC50. The assay is classed as cell-based. In outline:
as §2

For assay [4], the system named is HTT. In words: RT-qPCR splicing assay, HTT AJ/CJ mRNA. The format is cell-based, human. The settings on record: Homo sapiens, 24 h, A673 or K562 cells; for IC50: decrease in canonical junction mRNA; for AC50: increase in alternative junction mRNA. Put shortly:
as §1

The next assay has as its system SMN2. Kind of assay: Gene panel canonical junction qPCR assay, SMN2 CJ mRNA (Table 7). The settings on record: Homo sapiens, read-out: SMN2 CJ mRNA decrease IC50. The format is cell-based. In outline: as §2

As usually defined, the IC50 is the concentration that inhibits the measured activity by half. The AC50 is the concentration at which the activity in the assay is half-maximal. A lower AC50 goes with activity at low concentration. Turning to `Cc1cc(-c2ccc3c(c2)COc2nc(N4CC[C@@H](NC(C)(C)C)C4)ccc2-3)cnn1` (single isomer, unassigned) [Compound 274, N-tert-butyl-1-[8-(6-methylpyridazin-4-yl)-6H-isochromeno[3,4-b]379yrrolid-3-yl]379yrrolidine-3-amine], the IC50 in the assay on MYB [1] was more than 10000 nM; with HTT [2] it was 1000 to 10000 nM; with Target C, more than 10000 nM; in the assay on MYB [3], more than 10000 nM; in the assay with HTT [4], 1000 to 10000 nM; with SMN2 it was 100 to 1000 nM. For the same molecule, the AC50 with MYB [1] and with HTT [4] was more than 10000 nM in each case.

On to `COc1cc(-c2ccc3c(c2)COc2nc(N4CCC(NC(C)(C)C)C4)ccc2-3)cnn1` (stereo not shown) [Compound 251, N-tert-butyl-1-[8-(6-methoxypyridazin-4-yl)-6H-isochromeno[3,4-b]pyridin-3-yl]pyrrolidin-3-amine], for which the half-maximal inhibitory concentration (IC50) with MYB [1] was 100 to 1000 nM; in the assay on HTT [2] it was less than 100 nM; in the assay with Target C, less than 100 nM; in the assay with MYB [3], 100 to 1000 nM; with HTT [4] it was less than 100 nM; in the assay on SMN2, less than 100 nM. For the same molecule, the AC50 is 100 to 1000 nM in the assay with MYB [1] and less than 100 nM with HTT [4].

With `FC1(F)CC2CC(Nc3ccc4c(n3)OCc3cc(-c5cn[nH]c5)ccc3-4)CC1N2` (stereo not shown) [Compound 241, 6,6-difluoro-N-[8-(1H-pyrazol-4-yl)-6H-isochromeno[3,4-b]pyridin-3-yl]-8-azabicyclo[3.2.1]octan-3-amine], the IC50 in the assay on MYB [1], in the assay with HTT [2], with Target C, in the assay on MYB [3], in the assay on HTT [4] and in the assay on SMN2 was 1000 to 10000 nM in each case. Further, the AC50 in the assay on MYB [1] and with HTT [4] was 1000 to 10000 nM each time.

With `CC(C)(C)NC1CCN(c2ccc3c(n2)OCc2cc(-c4c(F)cn[nH]c4=O)ccc2-3)C1` (stereo not shown) [Compound 315, 4-{3-[3-(tert-butylamino)pyrrolidin-1-yl]-6H-isochromeno[3,4-b]pyridin-8-yl}-5-fluoro-2H-pyridazin-3-one], the concentration for half-maximal inhibition (IC50) with MYB [1], in the assay on HTT [2], in the assay on Target C, with MYB [3], in the assay on HTT [4] and with SMN2 was more than 10000 nM each time. Moreover, the half-maximal activity concentration (AC50) with MYB [1] and with HTT [4] was more than 10000 nM each time.

Regarding `Fc1cc2c(cc1-c1cn[nH]c1)COc1nc(O[C@@H]3C[C@H]4CC(F)(F)[C@@H](C3)N4)ccc1-2` [Compound 236], the IC50 in the assay with MYB [1] was 100 to 1000 nM; in the assay with HTT [2] it was less than 100 nM; in the assay on Target C it was 100 to 1000 nM; in the assay on MYB [3], 100 to 1000 nM; in the assay with HTT [4], less than 100 nM; in the assay on SMN2, less than 100 nM. Besides, the AC50 with MYB [1] and in the assay on HTT [4] was less than 100 nM throughout.

Take `COc1cc(-c2ccc3c(c2)COc2nc(N4CCC(NC(C)(C)C(C)C)C4)ccc2-3)cnn1` (stereo not shown) [Compound 316, N-(2,3-dimethylbutan-2-yl)-1-[8-(6-methoxypyridazin-4-yl)-6H-isochromeno[3,4-b]pyridin-3-yl]pyrrolidin-3-amine]: the IC50 was 100 to 1000 nM in the assay on MYB [1]; less than 100 nM with HTT [2]; 100 to 1000 nM in the assay on Target C; 100 to 1000 nM in the assay with MYB [3]; less than 100 nM with HTT [4]; less than 100 nM in the assay with SMN2. Further, the half-maximal activity concentration (AC50) with MYB [1] and in the assay on HTT [4] was 100 to 1000 nM each time.

Take `CC(C)(C)NC1CCN(c2ccc3c(n2)OCc2cc(-c4ccnnc4)ccc2-3)C1` (stereo not shown) [Compound 272, N-tert-butyl-1-[8-(pyridazin-4-yl)-6H-isochromeno[3,4-b]pyridin-3-yl]pyrrolidin-3-amine]: the IC50 in the assay with MYB [1] is more than 10000 nM; in the assay on HTT [2], 1000 to 10000 nM; with Target C, more than 10000 nM; with MYB [3], more than 10000 nM; in the assay on HTT [4], 1000 to 10000 nM; in the assay with SMN2, 1000 to 10000 nM. The AC50 in the assay on MYB [1] is more than 10000 nM; in the assay on HTT [4], 1000 to 10000 nM.

Take `Cc1cc(-c2ccc3c(c2)COc2nc(N4CC[C@H](NC(C)(C)C)C4)ccc2-3)cnn1` (single isomer, unassigned) [Compound 273, N-tert-butyl-1-[8-(6-methylpyridazin-4-yl)-6H-isochromeno[3,4-b]379yrrolid-3-yl]379yrrolidine-3-amine]: the IC50 with MYB [1], with HTT [2], in the assay with Target C, with MYB [3], in the assay with HTT [4] and in the assay on SMN2 was more than 10000 nM each time. Also, the AC50 with MYB [1] and in the assay on HTT [4] was more than 10000 nM in each case.

As for `CC1(C)CC(Nc2ccc3c(n2)CCOc2cc(-n4cccn4)ccc2-3)CC(C)(C)N1` [Compound 137], the IC50 in the assay with MYB [1] is more than 10000 nM; in the assay on HTT [2], more than 10000 nM; with Target C it was 1000 to 10000 nM; in the assay on MYB [3], more than 10000 nM; in the assay with HTT [4] it was 1000 to 10000 nM; with SMN2 it was more than 10000 nM. Also, the results for the AC50 with MYB [1] and in the assay on HTT [4] were more than 10000 nM and 1000 to 10000 nM, respectively.

For the molecule `COc1cc(-c2cc(F)c3c(c2)COc2nc(N(C)[C@@H]4C[C@H]5CC[C@@H](C4)N5)ccc2-3)cnn1` [Compound 254, (1R,3S,5S)—N-[10-fluoro-8-(6-methoxypyridazin-4-yl)-6H-isochromeno[3,4-b]pyridin-3-yl]-N-methyl-8-azabicyclo[3.2.1]octan-3-amine; bis(trifluoroacetaldehyde)], the IC50 is 100 to 1000 nM in the assay with MYB [1]; less than 100 nM in the assay with HTT [2]; 100 to 1000 nM in the assay on Target C; 100 to 1000 nM in the assay on MYB [3]; less than 100 nM with HTT [4]; less than 100 nM in the assay on SMN2. Also, the AC50 with MYB [1] was 100 to 1000 nM; in the assay on HTT [4], less than 100 nM.

As for `CN(c1ccc2c(n1)OCc1cc(-c3cn[nH]c3)c(F)cc1-2)C1CC(C)(C)NC(C)(C)C1` [Compound 233, 9-fluoro-N-methyl-8-(1H-pyrazol-4-yl)-N-(2,2,6,6-tetramethylpiperidin-4-yl)-6H-isochromeno[3,4-b]pyridin-3-amine], the IC50 was 100 to 1000 nM in the assay with MYB [1]; less than 100 nM in the assay on HTT [2]; 100 to 1000 nM in the assay with Target C; 100 to 1000 nM in the assay with MYB [3]; less than 100 nM in the assay with HTT [4]; less than 100 nM with SMN2. Besides, the AC50 in the assay on MYB [1] was in the range of 1000 to 10000 nM; in the assay on HTT [4], 100 to 1000 nM.

Turning to `COc1cc(-c2ccc3c(c2)COc2nc(N4CC[C@@H](N(C)C(C)(C)C)C4)ccc2-3)cnn1` [Compound 271, (3R)—N-tert-butyl-1-[8-(6-methoxypyridazin-4-yl)-6H-isochromeno [3,4-b]377yrrolid-3-yl]-N-methylpyrrolidin-3-amine], the IC50 was 100 to 1000 nM in the assay with MYB [1]; less than 100 nM in the assay with HTT [2]; 100 to 1000 nM in the assay on Target C; 100 to 1000 nM in the assay with MYB [3]; less than 100 nM with HTT [4]; less than 100 nM in the assay on SMN2. In addition, the concentration at half-maximal activity (AC50) was 100 to 1000 nM in the assay on MYB [1] and less than 100 nM with HTT [4].

`c1cnn(-c2ccc3c(c2)OCCc2cc(N[C@@H]4C[C@H]5CC[C@@H](C4)N5)ccc2-3)c1` [Compound 139]: the IC50 in the assay on MYB [1], in the assay on HTT [2], in the assay on Target C, with MYB [3], with HTT [4] and in the assay on SMN2 was more than 10000 nM throughout. The AC50 in the assay with MYB [1] and in the assay on HTT [4] was more than 10000 nM in each case.

For the molecule `c1cnn(-c2ccc3c(c2)COc2nc(N[C@@H]4C[C@H]5CC[C@@H](C4)N5)ccc2-3)c1` [Compound 179], the IC50 in the assay with MYB [1], in the assay with HTT [2], in the assay on Target C, in the assay with MYB [3], in the assay with HTT [4] and with SMN2 was 100 to 1000 nM in each case. Further, the AC50 in the assay with MYB [1] and in the assay with HTT [4] was 100 to 1000 nM throughout.

As to `CCN(CC)C1CCN(c2ccc3c(n2)OCc2cc(-c4cnnc(OC)c4)ccc2-3)C1` (stereo not shown) [Compound 321], the half-inhibitory concentration (IC50) is 1000 to 10000 nM in the assay on MYB [1]; 100 to 1000 nM in the assay with HTT [2]; 1000 to 10000 nM in the assay with Target C; 1000 to 10000 nM in the assay with MYB [3]; 100 to 1000 nM in the assay on HTT [4]; 100 to 1000 nM in the assay with SMN2. Also, the half-maximal activity concentration (AC50) in the assay on MYB [1] fell in the range of 1000 to 10000 nM; with HTT [4] it was 100 to 1000 nM.

Turning to `c1cnn(-c2ccc3c(c2)COc2nc(N4CCCC5(CNC5)C4)ccc2-3)c1` [Compound 181], the IC50 in the assay on MYB [1], with HTT [2], with Target C, in the assay with MYB [3], in the assay on HTT [4] and in the assay with SMN2 was more than 10000 nM each time. Further, the half-maximal activity concentration (AC50) in the assay with MYB [1] and with HTT [4] was more than 10000 nM each time.

`[2H]C([2H])([2H])N(c1ccc2c(n1)OCc1cc(-n3cccn3)ccc1-2)C1CC(C)(C)NC(C)(C)C1` [Compound 199]: the IC50 in the assay on MYB [1] is more than 10000 nM; with HTT [2], 1000 to 10000 nM; in the assay with Target C, more than 10000 nM; in the assay on MYB [3] it was more than 10000 nM; in the assay with HTT [4], 1000 to 10000 nM; with SMN2 it was 1000 to 10000 nM. Besides, the figures for the AC50 with MYB [1] and in the assay with HTT [4] were more than 10000 nM and 1000 to 10000 nM, respectively.
